According to ChEMBL document CHEMBL1148347, “Identification of non-phosphate-containing small molecular weight inhibitors of the tyrosine kinase p56 Lck SH2 domain via in silico screening against the pY + 3 binding site” (J Med Chem, 2004):
The source made the active and inactive calls. No cut-off for these calls is given here.

Target: Tyrosine-protein kinase Lck (Homo sapiens, UniProt P06239)
Test: Dissociation constant for p56 Lck tyrosine kinase SH2 domain by fluorescence titration

Chain of Tyrosine-protein kinase Lck (P06239 whole entry, the tested form may be a part): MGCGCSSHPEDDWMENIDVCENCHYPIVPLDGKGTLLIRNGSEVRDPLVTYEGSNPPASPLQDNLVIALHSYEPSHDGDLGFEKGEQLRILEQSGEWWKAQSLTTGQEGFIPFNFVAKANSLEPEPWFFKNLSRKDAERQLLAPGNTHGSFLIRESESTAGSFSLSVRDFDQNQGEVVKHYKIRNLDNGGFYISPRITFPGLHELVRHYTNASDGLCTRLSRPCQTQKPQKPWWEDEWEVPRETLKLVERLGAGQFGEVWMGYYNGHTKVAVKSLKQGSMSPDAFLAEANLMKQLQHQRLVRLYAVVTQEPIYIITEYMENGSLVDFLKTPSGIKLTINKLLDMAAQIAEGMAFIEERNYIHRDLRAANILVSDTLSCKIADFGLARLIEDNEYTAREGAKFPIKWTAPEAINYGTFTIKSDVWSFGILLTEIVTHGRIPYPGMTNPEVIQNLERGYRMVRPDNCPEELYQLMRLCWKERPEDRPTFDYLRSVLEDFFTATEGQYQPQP

Compound | Kd
Cc1ccc(NC(=O)CN2C(=O)S/C(=C\c3ccc(-c4cc(C(=O)O)ccc4C)o3)C2=O)cc1 | 6 µM

Organism: Mus musculus
Test: Inhibition of [3H]-thymidine incorporation into murine mixed lymphocyte culture at 100 uM (Significant anti-proliferative activity)
Assay type: functional

Compound | inhibition
Cc1ccc(NC(=O)c2cccc(NC(=O)c3ccccc3C(=O)O)c2)cc1C | Active
O=C(NCc1cccs1)c1cccnc1SCc1cccc(Br)c1 | Active
O=C(O)CC1SC(N/N=C2/CCCc3ccccc32)=NC1=O (configuration not stated) | Active
O=C(O)c1cccc(/N=C2\C(Cl)=C(O)OC2OC(=O)c2ccccc2)c1 (configuration not stated) | Active
Cc1ccc(C(=O)O)cc1NC(=O)CCC(=O)O | Active
COc1ccc(-n2c(SCC(=O)Nc3ccccc3OC)nc3nnc(C)c-3c2N)cc1 | Active
Cc1ccc(NC(=O)CN2C(=O)S/C(=C\c3ccc(-c4cc(C(=O)O)ccc4C)o3)C2=O)cc1 | Active
O=C(O)c1ccccc1SCc1cc(O)nc(O)n1 | Active
COc1ccc([N+](=O)[O-])cc1CSc1nnc(N)s1 | Active
COc1ccc(OC)c(NC(=O)CCNC(=O)Cn2cnc3ccccc3c2=O)c1 | Active
O=C(O)CSc1cccnc1Sc1ccc(Cl)cc1 | Active
